Assay results published in ChEMBL document CHEMBL1275440, “In vitro activity of telavancin against resistant gram-positive bacteria” (2008).
Converted amounts (≈) assume the structure as drawn. The source made the active and inactive calls. No cut-off for these calls is given here.

Tests used:
Enterococcus faecium [1] = test: Antibacterial activity against vancomycin resistant Enterococcus faecium VanB clinical isolate assessed as susceptibility level by broth microdilution method; assay type: functional
Enterococcus faecium [2] = test: Antibacterial activity against vancomycin resistant Enterococcus faecium VanA clinical isolate assessed as susceptibility level by broth microdilution method; assay type: functional
Enterococcus faecalis [3] = test: Antibacterial activity against vancomycin resistant Enterococcus faecalis VanB clinical isolate assessed as susceptibility level by broth microdilution method; assay type: functional
Enterococcus faecalis [4] = test: Antibacterial activity against vancomycin resistant Enterococcus faecalis VanA clinical isolate assessed as susceptibility level by broth microdilution method; assay type: functional
Enterococcus faecium [5] = test: Antibacterial activity against vancomycin resistant Enterococcus faecium VanB clinical isolate by broth microdilution method; assay type: functional
Enterococcus faecium [6] = test: Antibacterial activity against vancomycin resistant Enterococcus faecium VanA clinical isolate by broth microdilution method; assay type: functional
Enterococcus faecalis [7] = test: Antibacterial activity against vancomycin resistant Enterococcus faecalis VanB clinical isolate by broth microdilution method; assay type: functional
Enterococcus faecalis [8] = test: Antibacterial activity against vancomycin resistant Enterococcus faecalis VanA clinical isolate by broth microdilution method; assay type: functional
Enterococcus faecalis [9] = tested on: Enterococcus faecalis
Streptococcus viridans [10] = test: Antibacterial activity against Streptococcus viridans clinical isolate assessed as susceptibility level by broth microdilution method; assay type: functional
[11] = tested on: Streptococcus constellatus; test: Antibacterial activity against Streptococcus constellatus clinical isolate assessed as susceptibility level by broth microdilution method; assay type: functional
Streptococcus oralis [12] = test: Antibacterial activity against Streptococcus oralis clinical isolate assessed as susceptibility level by broth microdilution method; assay type: functional
[13] = tested on: Streptococcus intermedius; test: Antibacterial activity against Streptococcus intermedius clinical isolate assessed as susceptibility level by broth microdilution method; assay type: functional
Streptococcus mitis [14] = test: Antibacterial activity against Streptococcus mitis clinical isolate assessed as susceptibility level by broth microdilution method; assay type: functional
Streptococcus agalactiae [15] = test: Antibacterial activity against Streptococcus agalactiae group B clinical isolate assessed as susceptibility level by broth microdilution method; assay type: functional
Streptococcus pyogenes [16] = test: Antibacterial activity against Streptococcus pyogenes group A clinical isolate assessed as susceptibility level by broth microdilution method; assay type: functional
Streptococcus pneumoniae [17] = test: Antibacterial activity against multidrug-resistant Streptococcus pneumoniae clinical isolate assessed as susceptibility level by broth microdilution method; assay type: functional
Streptococcus pneumoniae [18] = test: Antibacterial activity against penicillin resistant Streptococcus pneumoniae clinical isolate assessed as susceptibility level by broth microdilution method; assay type: functional
Streptococcus pneumoniae [19] = test: Antibacterial activity against penicillin intermediate Streptococcus pneumoniae clinical isolate assessed as susceptibility level by broth microdilution method; assay type: functional
[20] = tested on: Staphylococcus saprophyticus; test: Antibacterial activity against methicillin resistant coagulase-negative Staphylococcus saprophyticus clinical isolate assessed as susceptibility level by broth microdilution method; assay type: functional
[21] = Antibacterial activity against methicillin resistant coagulase-negative Staphylococcus hominis subsp. novobiosepticus clinical isolate assessed as susceptibility level by broth microdilution method; assay type: functional
[22] = tested on: Staphylococcus haemolyticus; test: Antibacterial activity against methicillin resistant coagulase-negative Staphylococcus haemolyticus clinical isolate assessed as susceptibility level by broth microdilution method; assay type: functional
Staphylococcus capitis [23] = test: Antibacterial activity against methicillin resistant coagulase-negative Staphylococcus capitis clinical isolate assessed as susceptibility level by broth microdilution method; assay type: functional
[24] = tested on: Staphylococcus auricularis; test: Antibacterial activity against methicillin resistant coagulase-negative Staphylococcus auricularis clinical isolate assessed as susceptibility level by broth microdilution method; assay type: functional
[25] = tested on: Staphylococcus epidermidis; test: Antibacterial activity against methicillin resistant Staphylococcus epidermidis clinical isolate assessed as susceptibility level by broth microdilution method; assay type: functional
Staphylococcus aureus [26] = test: Antibacterial activity against methicillin resistant Staphylococcus aureus clinical isolate assessed as susceptibility level by broth microdilution method; assay type: functional
Streptococcus viridans [27] = test: Antibacterial activity against Streptococcus viridans clinical isolate by broth microdilution method; assay type: functional
[28] = tested on: Streptococcus constellatus; test: Antibacterial activity against Streptococcus constellatus clinical isolate by broth microdilution method; assay type: functional
Streptococcus oralis [29] = test: Antibacterial activity against Streptococcus oralis clinical isolate by broth microdilution method; assay type: functional
[30] = tested on: Streptococcus intermedius; test: Antibacterial activity against Streptococcus intermedius clinical isolate by broth microdilution method; assay type: functional
Streptococcus mitis [31] = test: Antibacterial activity against Streptococcus mitis clinical isolate by broth microdilution method; assay type: functional
Streptococcus agalactiae [32] = test: Antibacterial activity against Streptococcus agalactiae group B clinical isolate by broth microdilution method; assay type: functional
Streptococcus pyogenes [33] = test: Antibacterial activity against Streptococcus pyogenes group A clinical isolate by broth microdilution method; assay type: functional
Streptococcus pneumoniae [34] = test: Antibacterial activity against multidrug-resistant Streptococcus pneumoniae clinical isolate by broth microdilution method; assay type: functional
Streptococcus pneumoniae [35] = test: Antibacterial activity against penicillin resistant Streptococcus pneumoniae clinical isolate by broth microdilution method; assay type: functional
Streptococcus pneumoniae [36] = test: Antibacterial activity against penicillin intermediate Streptococcus pneumoniae clinical isolate by broth microdilution method; assay type: functional
[37] = tested on: Staphylococcus saprophyticus; test: Antibacterial activity against methicillin resistant coagulase-negative Staphylococcus saprophyticus clinical isolate by broth microdilution method; assay type: functional
[38] = Antibacterial activity against methicillin resistant coagulase-negative Staphylococcus hominis subsp. novobiosepticus clinical isolate by broth microdilution method; assay type: functional
[39] = tested on: Staphylococcus haemolyticus; test: Antibacterial activity against methicillin resistant coagulase-negative Staphylococcus haemolyticus clinical isolate by broth microdilution method; assay type: functional
Staphylococcus capitis [40] = test: Antibacterial activity against methicillin resistant coagulase-negative Staphylococcus capitis clinical isolate by broth microdilution method; assay type: functional
[41] = tested on: Staphylococcus auricularis; test: Antibacterial activity against methicillin resistant coagulase-negative Staphylococcus auricularis clinical isolate by broth microdilution method; assay type: functional
[42] = tested on: Staphylococcus epidermidis; test: Antibacterial activity against methicillin resistant Staphylococcus epidermidis clinical isolate by broth microdilution method; assay type: functional
Staphylococcus aureus [43] = test: Antibacterial activity against methicillin resistant Staphylococcus aureus clinical isolate by broth microdilution method; assay type: functional

## CC1(C)S[C@@H]2[C@H](NC(=O)[C@H](N)c3ccccc3)C(=O)N2[C@H]1C(=O)O [AMPICILLIN]
Enterococcus faecium [1]
  Activity: 22%
Enterococcus faecium [2]
  Activity: 0%
Enterococcus faecalis [3]
  Activity: 60%
Enterococcus faecalis [4]
  Percent of isolates susceptible: 81%
Enterococcus faecium [5]
  MIC50: 64 µg/mL (≈ 183 µM)
  MIC90: 64 µg/mL (≈ 183 µM)
Enterococcus faecium [6]
  MIC50: 64 µg/mL (≈ 183 µM)
  MIC90: 128 µg/mL (≈ 366 µM)
Enterococcus faecalis [7]
  MIC: ≤ 0.25 µg/mL
Enterococcus faecalis [8]
  MIC50: 1 µg/mL (≈ 2.86 µM)
  MIC90: 64 µg/mL (≈ 183 µM)
Enterococcus faecalis [9]
  MIC50: inactive
  MIC90: inactive

## CC[C@H]1OC(=O)[C@H](C)[C@@H](O[C@H]2C[C@@](C)(OC)[C@@H](O)[C@H](C)O2)[C@H](C)[C@@H](O[C@@H]2O[C@H](C)C[C@H](N(C)C)[C@H]2O)[C@](C)(O)C[C@@H](C)C(=O)[C@H](C)[C@@H](O)[C@]1(C)O [ERYTHROMYCIN]
Streptococcus viridans [10]
  Activity: 63%
[11]
  Activity: 63%
Streptococcus oralis [12]
  Activity: 63%
[13]
  Activity: 63%
Streptococcus mitis [14]
  Activity: 63%
Streptococcus agalactiae [15]
  Activity: 62%
Streptococcus pyogenes [16]
  Activity: 89%
Streptococcus pneumoniae [17]
  Activity: 13%
Streptococcus pneumoniae [18]
  Activity: 20%
Streptococcus pneumoniae [19]
  Activity: 42%
[20]
  Activity: 18%
[21]
  Activity: 18%
[22]
  Activity: 18%
Staphylococcus capitis [23]
  Activity: 18%
[24]
  Activity: 18%
[25]
  Activity: 15%
Staphylococcus aureus [26]
  Activity: 2%
Streptococcus viridans [27]
  MIC: ≤ 0.015 µg/mL
  MIC50: inactive
  MIC90: inactive
[28]
  MIC: ≤ 0.015 µg/mL
  MIC50: inactive
  MIC90: inactive
Streptococcus oralis [29]
  MIC: ≤ 0.015 µg/mL
  MIC50: inactive
  MIC90: inactive
[30]
  MIC: ≤ 0.015 µg/mL
  MIC50: inactive
  MIC90: inactive
Streptococcus mitis [31]
  MIC: ≤ 0.015 µg/mL
  MIC50: inactive
  MIC90: inactive
Streptococcus agalactiae [32]
  MIC50: 0.06 µg/mL (≈ 0.0818 µM)
  MIC90: > 1 µg/mL
Streptococcus pyogenes [33]
  MIC50: 0.03 µg/mL (≈ 0.0409 µM)
  MIC90: > 1 µg/mL
Streptococcus pneumoniae [34]
  MIC: 0.03 µg/mL (≈ 0.0409 µM)
Streptococcus pneumoniae [35]
  MIC: 0.03 µg/mL (≈ 0.0409 µM)
Streptococcus pneumoniae [36]
  MIC50: > 1 µg/mL
  MIC90: > 1 µg/mL
[37]
  MIC50: > 16 µg/mL
  MIC90: > 16 µg/mL
[38]
  MIC50: > 16 µg/mL
  MIC90: > 16 µg/mL
[39]
  MIC50: > 16 µg/mL
  MIC90: > 16 µg/mL
Staphylococcus capitis [40]
  MIC50: > 16 µg/mL
  MIC90: > 16 µg/mL
[41]
  MIC50: > 16 µg/mL
  MIC90: > 16 µg/mL
[42]
  MIC50: > 16 µg/mL
  MIC90: > 16 µg/mL
Staphylococcus aureus [43]
  Activity: 2%
Staphylococcus aureus [43]; Staphylococcus aureus
  MIC50: > 16 µg/mL
  MIC90: > 16 µg/mL
